In brackets after ≈: the same amount, converted by molar mass.
Experiments:
Assay type in all cases: cell-based
[1] = system: Klebsiella pneumoniae (DSM 30104); test: MIC determination by broth dilution (CLSI M07), 96-well plates; conditions: Klebsiella pneumoniae, DSM30104; Klebsiella, 37°C, 24 h
Protocol: (§1) The antimicrobial activity of the product Comp. 1 in Example 10 was tested in vitro according to method CLSI M07 "Methods for dilution Antimicrobial susceptibility tests for bacteria that grow aerobically".
(§2) For this purpose, the MIC (Minimum Inhibitory Concentration) values were determined with respect to the main microorganisms responsible for urinary tract infections.
(§3) More specifically, the microorganisms utilised were: Escherichia coli (DSM 1576), Klebsiella pneumoniae (DSM 30104), and Enterococcus faecalis(DSM 20477).
(§4) For each experiment conducted, the bacteria stated above were revived from a cell bank stored at -80°C. […]
(§5) The assay to determine the MIC was conducted in 96-well plates testing 12 concentrations (serial dilutions) of each sample. 200 µL of the sample, prepared at a concentration of 2x with respect to the maximum concentration being tested, was dispensed into the first well and 100 µL medium was added to the subsequent wells, performing serial dilutions of 1:2 up to 12th well. Finally, 100 µL of each microorganism at a concentration of 10^5 was inoculated into each well.
(§6) Two antibiotics were used as controls: Fosfomycin (Sigma) and Ceftriaxone (Sigma) at different final concentrations based on the microorganism utilised; both the antibiotics were dissolved in sterile water and then filtered with 0.22 µm filters.
(§7) Growth was tested and the sterility of the medium and of the product was tested. The antimicrobial activity of the D-mannose was also assessed individually. The plates thus prepared were incubated at 37°C for 24h and the results were then observed (Figure 1). The final concentrations tested for each product analysed are stated in Table 2.

[2] = system: Escherichia coli (DSM 1576); test: as above; conditions: Escherichia coli, DSM1576; E. coli, 37°C, 24 h
Protocol: as §1, §2, §3, §4, §5, §6, §7

[3] = system: Enterococcus faecium; test: as above; conditions: Enterococcus faecium; E. faecium, 37°C, 24 h
[4] = system: Enterococcus faecium; test: Minimum biofilm eradication concentration (MBEC), 72 h preformed biofilm, crystal violet staining; conditions: E. faecium; fosfomycin 3000-23.44 µg/mL tested
Protocol: (§8) To determine the minimum biofilm eradication concentration, 48-well plates were utilised. The microorganisms were incubated for 72 h at 37°C to allow the formation of the biofilm. Once formed, the biofilm was treated with fosfomycin and with the product Comp. 1 in Example 10. In particular, after the formation of the biofilm, the supernatant was suctioned and replaced with solutions containing gradually decreasing concentrations of product or of fosfomycin. The plates thus prepared were incubated for 24 h at 37°C. At the end of the incubation time, the supernatant present in each well was removed, together with the bacteria that was not attached to the plate and, after washing, the plates were incubated at 60°C for 2 hours to fix the cells before the staining with crystal violet. The crystal violet staining was performed to assess the effect of the product and the fosfomycin on the removal of the biofilm. 50 µL crystal violet dissolved in deionised water was dispensed into each well. After 5 minutes of incubation at room temperature, each well was washed three times with PBS 1x. The biofilm eradication activity was viewed under microscopic observation (Figures 7-9). The final concentrations tested for each product are stated in Table 4 Table 4 [table]

[5] = system: Escherichia coli; test: as above; conditions: E.coli; fosfomycin 30000-234.38 µg/mL tested
Protocol: as §8

[6] = system: Klebsiella pneumoniae; test: as above; conditions: K. pneumoniae; 72 h biofilm, 24 h treatment
Protocol: as §8

[7] = system: Enterococcus faecium; test: Minimum biofilm inhibitory concentration (MBIC), crystal violet staining, comparison with fosfomycin; conditions: E. faecium; 24 h
Protocol: (§9) The capacity of the product Comp. […] The formation of the biofilm was viewed by means of Crystal Violet staining, wherein the stain penetrates the bacterial cells and turns them purple. To determine the MBIC, 48-well plates were utilised. 200 µL of the sample, prepared at a concentration of 2x with respect to the maximum concentration being tested, was dispensed into the first well and 100 µL of medium was added to the subsequent wells, performing serial dilutions of 1:2 up to the 8th well. Finally, 100 µL of each microorganism at a concentration of 10^5 were inoculated into each well. The biofilm inhibition activity of the fosfomycin, at a lower concentration with respect to the MIC value measured in Example 10, was also assessed and the sterility and growth tests were performed for each microorganism. The multiwell plates were incubated at 37°C for 24 hours and then the supernatant present was removed, together with the planktonic bacteria not attached to the plate. The biofilm was then washed 3 times with PBS and subsequently the cells were fixed by means of incubation at 60°C for 2 hours, before being stained with crystal violet. The crystal violet staining was performed to assess the effect of the product and the fosfomycin on the formation of the biofilm. 50 µL crystal violet dissolved in deionised water was dispensed into each well and, after 5 minutes of incubation at room temperature, each well was finally washed three times with PBS 1x. The biofilm inhibition activity was viewed by microscopic observation under stereomicroscope and optical microscope using the phase-contrast method. The final concentrations tested for each sample are stated in Table 3. Table 3 [table]

[8] = system: Escherichia coli; test: as above; conditions: E. coli; 24 h
Protocol: as §9

[9] = system: Klebsiella pneumoniae; test: as above; conditions: K. pneumoniae; 24 h
Protocol: as §9

MIC [1]: 5000 µg/mL (≈ 36200 µM)
MIC [2]: 19.5 µg/mL (≈ 141 µM)
MIC [3]: 78.1 µg/mL (≈ 566 µM)
Compound: C[C@@H]1O[C@@H]1P(=O)(O)O [fosfomycin, Fosfomycin]
biofilm eradication effect [4]: did not seem to have a biofilm eradication effect
biofilm eradication effect [5]: did not seem to have a biofilm eradication effect
concentrations with biofilm eradication activity [6]: greater than 468 µg/mL
concentration necessary for biofilm inhibition effect [7]: at least 321 µg/mL
concentrations with a biofilm inhibition effect [8]: ≥ 78 µg/mL
concentrations with a biofilm inhibition effect [9]: ≥ 78 µg/mL

Reference: patent publication EP4380555B1, “COMPOSITION COMPRISING D-MANNOSE, N-ACETYLCYSTEINE AND PALMITOYLETHANOLAMIDE AND ITS USE FOR THE TREATMENT OF URIRNARY TRACT INFECTIONS” (Agave S.r.l., priority 2021, dated 2023)
